{
  "source": "patent US20240335440A1",
  "about": "“COMBINATION THERAPY COMPRISING A PKC INHIBITOR AND A C-MET INHIBITOR” (IDEAYA BIOSCIENCES, INC., priority 2021, published 2024)",
  "origin": "cited, not measured here",
  "key": {"[1]": {"test_system": "metastatic uveal melanoma (MUM)", "settings": "First-Line MUM (n = 31); oral capsules QD"}, "[2]": {"test_system": "metastatic uveal melanoma (MUM)", "settings": "Second-Line + MUM (n = 127)"}},
  "note": "Like-named read-outs stand apart in the source and are kept apart here. Marks after values point to notes of the source that are not given here.",
  "data": [
    {"compound": "COc1cc2nccc(Oc3ccc(NC(=O)C4(C(=O)Nc5ccc(F)cc5)CC4)cc3)c2cc1OC", "note": "[Cabozantinib]", "values": [
      {"measurement": "Tolerability (Grade ≥3 Drug-related AE)", "setting": "[1]", "result": 51.6, "unit": "%"}
    ]},
    {"compound": "Tebentafusp: HLA-A2-0201 bi-specific AB, IV infusion (weekly), IMCgp100-102 study", "values": [
      {"measurement": "Tolerability (Grade ≥3 Drug-related AE)", "setting": "[2]; HLA-A2-0201 patients, IV infusion weekly", "result": 46.5, "unit": "%"},
      {"measurement": "% Pts with tumor shrinkage", "setting": "[2]; independent review", "result": 44, "unit": "%^#"},
      {"measurement": "Overall response rate by RECIST 1.1", "setting": "[2]; independent review", "result": 4.7, "unit": "%^#"},
      {"measurement": "Progression free survival (mPFS)", "setting": "[2]; independent review", "result": 2.8, "unit": "mo.^#"}
    ]}
  ]
}
